Read-outs that look alike come from different tables or passages of the source.
Assays:
RIPK1 = RIPK1 (Homo sapiens (Human), UniProt Q13546); assay: ADP-Glo kinase assay (RIPK1 activity, conversion of ATP to ADP); format: biochemical; conditions: 5 nM RIPK1, 50 μM ATP, 6 h reaction; read-out: RIPK1 Enzyme Avg IC50
How it was run: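 RIPK1 (5 nM final) was preincubated 10 min at rt with 1:3-diluted compounds in HEPES pH 7.5/MgCl2/DTT/BSA/CHAPS buffer. ATP (50 μM final) was then added for 6 h, and ADP formed was read by ADP-Glo luminescence. IC50 values came from four-parameter logistic fitting.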

[1] = test system: human monocytic cell line U937; assay: Human U937 cellular necroptosis assay (TNFalpha + z-VAD-FMK, Cell Titer-Glo viability); format: cell-based; conditions: U937 cells, 25 ng/mL human TNFalpha + 25 μM z-VAD-FMK, read-out: hU937 Avg IC50
How it was run: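 Readout is CellTiter-Glo 2.0 luminescence after 22 h at 37° C with compound, in cells triggered by human TNFalpha (25 ng/mL) and z-VAD-FMK (25 μM) in phenol red-free RPMI/10% FBS. Values are run-averaged IC50s from a four-parameter logistic curve.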

Sequence of RIPK1 (Q13546 1-327): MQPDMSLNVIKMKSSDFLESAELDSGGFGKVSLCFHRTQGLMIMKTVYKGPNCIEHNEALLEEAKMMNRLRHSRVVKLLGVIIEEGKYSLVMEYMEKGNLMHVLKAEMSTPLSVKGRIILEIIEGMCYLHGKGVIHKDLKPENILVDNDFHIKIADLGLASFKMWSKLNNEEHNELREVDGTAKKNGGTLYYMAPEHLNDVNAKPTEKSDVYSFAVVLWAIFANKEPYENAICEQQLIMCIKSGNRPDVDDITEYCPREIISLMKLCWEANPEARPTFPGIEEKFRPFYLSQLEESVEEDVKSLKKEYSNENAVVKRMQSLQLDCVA

SMILES	IC50 (RIPK1)	IC50 ([1]; Homo sapiens, U-937, 22 h)	IC50 ([1]; 22 h)
O=C(N1CC(F)CC1c1cccc(F)c1)C12CC(COc3nccc(Cl)n3)(C1)C2 (stereo not drawn) [Example 101, (3-(((4-chloropyrimidin-2-yl)oxy)methyl)bicyclo[1.1.1]-pentan-1-yl)(4-fluoro-2-(3-fluorophenyl)pyrrolidin-1-yl)methanone]	486 nM	1340 nM	–
N#Cc1cccc(C2CC=NN2C(=O)C23CC(Cn4ncc5ncccc54)(C2)C3)c1 (stereo not drawn) [Example 139, 3-(1-(3-((1H-pyrazolo[4,3-b]-pyridin-1-yl)methyl)bicyclo-[1.1.1]pentane-1-carbonyl)-4,5-dihydro-1H-pyrazol-5-yl)benzonitrile]	95 nM	493 nM	–
N#Cc1cnn(CC23CC(C(=O)N4N=CCC4c4cnccn4)(C2)C3)c1 (stereo not drawn) [Example 167, 1-((3-(5-(pyrazin-2-yl)-4,5-dihydro-1H-pyrazole-1-carbonyl)bicyclo[1.1.1]-pentan-1-yl)methyl)-1H-pyrazole-4-carbonitrile]	306 nM	1880 nM	–
N#CCC12CC(C(=O)N3N=CCC3c3cc(F)cc(F)c3)(C1)C2 (stereo not drawn) [Example 18, 2-(3-(5-(3,5-Difluorophenyl)-4,5-dihydro-1H-pyrazole-1-carbonyl)-bicyclo[1.1.1]pentan-1-yl)acetonitrile]	70 nM	284 nM	–
N#Cc1ccnc(OCC23CC(C(=O)N4CC(F)CC4c4cccc(F)c4)(C2)C3)c1 (stereo not drawn) [Example 26, 2-((3-(4-Fluoro-2-(3-fluorophenyl)pyrrolidine-1-carbonyl)-bicyclo[1.1.1]pentan-1-yl)methoxy)isonicotinonitrile]	59 nM	472 nM	–
N#Cc1ccc2c(cnn2CC23CC(C(=O)N4CCC4c4cccc(Cl)c4Cl)(C2)C3)c1 (stereo not drawn) [Example 260, 1-((3-(2-(2,3-dichlorophenyl)-azetidine-1-carbonyl)bicyclo-[1.1.1]pentan-1-yl)methyl)-1H-indazole-5-carbonitrile]	528 nM	5600 nM	–
N#Cc1ccc2c(cnn2CC23CC(C(=O)N4CCC4c4ccc(F)cc4)(C2)C3)c1 (stereo not drawn) [Example 234, 1-((3-(2-(4-fluorophenyl)-azetidine-1-carbonyl)bicyclo-[1.1.1]pentan-1-yl)methyl)-1H-indazole-5-carbonitrile]	211 nM	1970 nM	–
COc1ccc(C(F)C23CC(C(=O)N4N=CCC4c4cc(F)cc(F)c4)(C2)C3)cc1 (stereo not drawn) [Example 228, (5-(3,5-difluorophenyl)-4,5-dihydro-1H-pyrazol-1-yl)(3-(fluoro(4-methoxyphenyl)-methyl)bicyclo[1.1.1]pentan-1-yl)methanone]	433 nM	2400 nM	–
O=C(N1N=CCC1c1cc(F)cc(F)c1)C12CC(Cn3cc(C(F)(F)F)cn3)(C1)C2 (stereo not drawn) [Example 72, (5-(3,5-difluorophenyl)-4,5-dihydro-1H-pyrazol-1-yl)(3-((4-(trifluoromethyl)-1H-pyrazol-1-yl)methyl)bicyclo-[1.1.1]pentan-1-yl)methanone]	78 nM	98 nM	–
N#Cc1ccc2c(cnn2CC23CC(C(=O)N4CCC4c4ccc(Cl)cc4)(C2)C3)c1 (stereo not drawn) [Example 233, 1-((3-(2-(4-chlorophenyl)-azetidine-1-carbonyl)bicyclo-[1.1.1]pentan-1-yl)methyl)-1H-indazole-5-carbonitrile]	223 nM	1190 nM	–
O=C(N1N=CCC1c1cc(F)cc(F)c1)C12CC(Cn3c(=O)[nH]c4ccccc43)(C1)C2 (stereo not drawn) [Example 109, 1-((3-(5-(3,5-difluorophenyl)-4.5-dihydro-1H-pyrazole-1-carbonyl)bicyclo[1.1.1]-pentan-1-yl)methyl)-1,3-dihydro-2H-benzo[d]-imidazol-2-one]	42 nM	470 nM	–
Cn1cc(-c2cc(OCC34CC(C(=O)N5CC(F)CC5c5cccc(F)c5)(C3)C4)ncn2)cn1 (single isomer, unassigned) [Example 30, (4-Fluoro-2-(3-fluorophenyl)pyrrolidin-1-yl)(3-(((6-(1-methyl-1H-pyrazol-4-yl)pyrimidin-4-yl)oxy)methyl)bicyclo[1.1.1]pentan-1-yl)methanone]	124 nM	–	708 nM
O=C(N1CC(F)CC1c1cccc(F)c1)C12CC(Cn3cc4cc(F)ccc4n3)(C1)C2 (stereo not drawn) [Example 106, (4-fluoro-2-(3-fluorophenyl)-pyrrolidin-1-yl)(3-((5-fluoro-2H-indazol-2-yl)methyl)-bicyclo[1.1.1]pentan-1-yl)methanone]	371 nM	1470 nM	–
N#Cc1cnn(CC23CC(C(=O)N4N=CCC4c4cncc(F)c4)(C2)C3)c1 (stereo not drawn) [Example 166, 1-((3-(5-(5-fluoropyridin-3-yl)-4,5-dihydro-1H-pyrazole-1-carbonyl)bicyclo[1.1.1]-pentan-1-yl)methyl)-1H-pyrazole-4-carbonitrile]	308 nM	1970 nM	–
O=C(N1N=CCC1c1cc(F)cc(F)c1)C12CC(Cn3cc(-c4ccccn4)cn3)(C1)C2 (stereo not drawn) [Example 111, (5-(3,5-difluorophenyl)-4,5-dihydro-1H-pyrazol-1-yl)(3-((4-(pyridin-2-yl)-1H-pyrazol-1-yl)methyl)-bicyclo[1.1.1]pentan-1-yl)methanone]	43 nM	249 nM	–
COc1ccc2cn(CC34CC(C(=O)N5N=CCC5c5cc(F)cc(F)c5)(C3)C4)nc2c1 (stereo not drawn) [Example 57, (5-(3,5-difluorophenyl)-4,5-dihydro-1H-pyrazol-1-yl)(3-((6-methoxy-2H-indazol-2-yl)methyl)bicyclo[1.1.1]-pentan-1-yl)methanone]	32 nM	110 nM	–
O=C(N1N=CCC1c1cc(F)cc(F)c1)C12CC(Cn3cc4c(F)cccc4n3)(C1)C2 (stereo not drawn) [Example 21, (5-(3,5-Difluorophenyl)-4,5-dihydro-1H-pyrazol-1-yl)(3-((4-fluoro-2H-indazol-2-yl)methyl)bicyclo[1.1.1]pentan-1-yl)methanone]	70 nM	114 nM	–
COc1ccn(CC23CC(C(=O)N4N=CCC4c4cc(F)cc(F)c4)(C2)C3)n1 (stereo not drawn) [Example 164, (5-(3,5-difluorophenyl)-4,5-dihydro-1H-pyrazol-1-yl)(3-((3-methoxy-1H-pyrazol-1-yl)methyl)bicyclo[1.1.1]-pentan-1-yl)methanone]	57 nM	214 nM	–

These reach a lower IC50 (RIPK1). Values come first.

IC50 (RIPK1)	SMILES	IC50 ([1]; Homo sapiens, U-937, 22 h)	IC50 ([1]; 22 h)
11 nM	O=C(N1N=CCC1c1ccccc1)C12CC(Cn3ncc4c(F)cccc43)(C1)C2 (stereo not drawn) [Example 81, (3-((4-fluoro-1H-indazol-1-yl)methyl)bicyclo[1.1.1]-pentan-1-yl)(5-phenyl-4,5-dihydro-1H-pyrazol-1-yl)-methanone]	12 nM	–
21 nM	O=C(N1N=CCC1c1cc(F)cc(F)c1)C12CC(Cn3ncc4ccncc43)(C1)C2 (stereo not drawn) [Example 87, (3-((1H-pyrazolo[3,4-c]-pyridin-1-yl)methyl)bicyclo-[1.1.1]pentan-1-yl)(5-(3,5-difluorophenyl)-4,5-dihydro-1H-pyrazol-1-yl)methanone]	33 nM	–
24 nM	O=C(N1N=CCC1c1cc(F)cc(F)c1)C12CC(Cn3ccn4nccc34)(C1)C2 (stereo not drawn) [Example 158, (3-((1H-imidazo[1,2-b]-pyrazol-1-yl)methyl)-bicyclo[1.1.1]pentan-1-yl)(5-(3,5-difluorophenyl)-4,5-dihydro-1H-pyrazol-1-yl)methanone]	62 nM	–
18 nM	O=C(N1N=CCC1c1cc(F)cc(F)c1)C12CC(Cn3nc4ccc(F)cc4n3)(C1)C2 (stereo not drawn) [Example 85, (5-(3,5-difluorophenyl)-4,5-dihydro-1H-pyrazol-1-yl)(3-((5-fluoro-2H-benzo[d]-[1,2,3]triazol-2-yl)methyl)-bicyclo[1.1.1]pentan-1-yl)-methanone]	24 nM	–
25 nM	N#Cc1cnc2cnn(CC34CC(C(=O)N5N=CCC5c5cc(F)cc(F)c5)(C3)C4)c2c1 (stereo not drawn) [Example 218, 1-((3-(5-(3,5-difluorophenyl)-4,5-dihydro-1H-pyrazole-1-carbonyl)bicyclo[1.1.1]pentan-1-yl)methyl)-1H-pyrazolo[4,3-b]pyridine-6-carbonitrile]	113 nM	–
25 nM	O=C(N1N=CCC1c1cc(F)cc(F)c1)C12CC(Cn3ncc4cccnc43)(C1)C2 (stereo not drawn) [Example 89, (3-((1H-pyrazolo[3,4-b]-pyridin-1-yl)methyl)bicyclo-[1.1.1]pentan-1-yl)(5-(3,5-difluorophenyl)-4,5-dihydro-1H-pyrazol-1-yl)methanone]	137 nM	–
16 nM	N#Cc1ccc(OCC23CC(C(=O)N4N=CCC4c4cc(F)cc(F)c4)(C2)C3)c(F)c1 (stereo not drawn) [Example 333, 4-((3-(5-(3,5-difluorophenyl)-4,5-dihydro-1H-pyrazole-1-carbonyl)bicyclo[1.1.1]pentan-1-yl)methoxy)-3-fluoro-benzonitrile]	36 nM	–
18 nM	O=C(N1N=CCC1c1cc(F)cc(F)c1)C12CC(COc3ccc(F)cc3F)(C1)C2 (stereo not drawn) [Example 335, (3-((2,4-difluorophenoxy)-methyl)bicyclo[1.1.1]pentan-1-yl)(5-(3,5-difluorophenyl)-4,5-dihydro-1H-pyrazol-1-yl)methanone]	46 nM	–
19 nM	O=C(N1N=CCC1c1cc(F)cc(F)c1)C12CC(Cn3ncc4cc(F)ccc43)(C1)C2 (stereo not drawn) [Example 4, (5-(3,5-Difluorophenyl)-4,5-dihydro-1H-pyrazol-1-yl)(3-((5-fluoro-1H-indazol-1-yl)methyl)bicyclo[1.1.1]pentan-1-yl)methanone]	9 nM	–
